Measurements published in US20100267637A1, “TREATMENT OF MELANOMA WITH ALPHA THYMOSIN PEPTIDES IN COMBINATION WITH A KINASE INHIBITOR” (SciClone Pharmaceuticals, Inc., priority 2007, published 2010).

Tested on: murine B16 melanoma cells
Experiment: Anti-tumor effect: tumor size / tumor volume in mice bearing subcutaneous B16 melanoma
Assay type: in vivo, C57BL/6 mice
Set-up: key to Tumor measurement L (length) / Tumor measurement W (width): The sign “—” indicates that tumor does not reach a measurable size
Conditions: for Tumor Volume (cm^3) (Mean ± SD): group mean; for PI (TV), percent inhibition of tumor volume: vs vehicle; for Tumor volumes on Day 15: Length × Width × Width/2
Procedure: The toxic effects of the dosing regimens were also monitored. […] Meanwhile 9H10 was given in two groups via i.p. on Day 3, 6 and 9. […] Tumor volume and body weight were measured every three days, and tumor weights were measured on Day 16 at the end of the study.
As per aseptic tissue culture procedures, one vial of B16 melanoma cells was removed from the liquid nitrogen stock, and placed into a 37° C. water bath. Gentle swirling was conducted until the content of the vial was thawed. Using tissue culture/sterile procedures, the cells were immediately centrifuged with a TD5A-WS centrifuge at 1000 rpm, 20-25° C., 5 min. After centrifugation, the cells were suspended in 0.1 to 0.5 mL normal saline (NS) and subcutaneously injected into 10 mice (0.1 mL/mouse, about 1×10^6 cells). After 7-10 days, when the tumor diameter was approximately 1 cm, the animals were euthanized with CO2 overdose and the tumors excised. The procedure was repeated with 20 mice to generate a sufficient number of B16 melanoma cells with adequate transplantability.
On the day of tumor implantation, approximately 1×10^6 cells in 0.1 mL were subcutaneously injected on the right axillary area of each mouse. The day of tumor implantation was defined as Day 0.
On Day 3, the animals were randomly assigned into nine different weight-matched and tumor-size-matched groups. Dosing was started on Day 3 using the regimen according to Table 2.
From Day 1 to Day 15, mortality and moribundity were checked twice daily, the body weights were recorded once every 3 days, and tumors were measured using a caliper once every 3 days. At the end of the study (Day 16), the animals were euthanized by CO2 asphyxiation, and the tumors were excised and weighed.
Based on the tumor size, the tumor volume (TV) was calculated with the formula: [TV=(Length×Width×Width)/2]. And the percent inhibition (PI) of TV (PITV) was calculated according to the equation below:
PITV(%)=(TV vehicle−TVdrug treated)/TV vehicle×100
Inter-group comparison was performed in terms of tumor volume, tumor weight and body weight, using a student's t test. P values of less than 0.05 were considered to be statistically significant.

CNC(=O)c1cc(Oc2ccc(NC(=O)Nc3ccc(Cl)c(C(F)(F)F)c3)cc2)ccn1 [Sorafenib]
Tumor measurement L (length) (Day 3, animal F1): —
Tumor measurement W (width) (Day 3, animal F1): —
Tumor volume (Day 3, animal F1): 0.0000 cm^3
Tumor measurement L (length) (Day 3, animal F2): 0.20 cm
Tumor measurement W (width) (Day 3, animal F2): 0.20 cm
Tumor volume (Day 3, animal F2): 0.0040 cm^3
Tumor measurement L (length) (Day 3, animal F3): 0.10 cm
Tumor measurement W (width) (Day 3, animal F3): 0.10 cm
Tumor volume (Day 3, animal F3): 0.0005 cm^3
Tumor measurement L (length) (Day 3, animal F4): —
Tumor measurement W (width) (Day 3, animal F4): —
Tumor volume (Day 3, animal F4): 0.0000 cm^3
Tumor measurement L (length) (Day 3, animal F5): —
Tumor measurement W (width) (Day 3, animal F5): —
Tumor volume (Day 3, animal F5): 0.0000 cm^3
Tumor measurement L (length) (Day 3, animal M1): 0.20 cm
Tumor measurement W (width) (Day 3, animal M1): 0.20 cm
Tumor volume (Day 3, animal M1): 0.0040 cm^3
Tumor measurement L (length) (Day 3, animal M2): —
Tumor measurement W (width) (Day 3, animal M2): —
Tumor volume (Day 3, animal M2): 0.0000 cm^3
Tumor measurement L (length) (Day 3, animal M3): —
Tumor measurement W (width) (Day 3, animal M3): —
Tumor volume (Day 3, animal M3): 0.0000 cm^3
Tumor measurement L (length) (Day 3, animal M4): —
Tumor measurement W (width) (Day 3, animal M4): —
Tumor volume (Day 3, animal M4): 0.0000 cm^3
Tumor measurement L (length) (Day 3, animal M5): —
Tumor measurement W (width) (Day 3, animal M5): —
Tumor volume (Day 3, animal M5): 0.0000 cm^3
Tumor Volume (cm^3) (Mean ± SD) (Day 3): 0.001 ± 0.0017 cm^3
PI (TV), percent inhibition of tumor volume (Day 3): −750.00%
Tumor measurement L (length) (Day 6, animal F1): —
Tumor measurement W (width) (Day 6, animal F1): —
Tumor volume (Day 6, animal F1): 0.0000 cm^3
Tumor measurement L (length) (Day 6, animal F2): —
Tumor measurement W (width) (Day 6, animal F2): —
Tumor volume (Day 6, animal F2): 0.0000 cm^3
Tumor measurement L (length) (Day 6, animal F3): —
Tumor measurement W (width) (Day 6, animal F3): —
Tumor volume (Day 6, animal F3): 0.0000 cm^3
Tumor measurement L (length) (Day 6, animal F4): —
Tumor measurement W (width) (Day 6, animal F4): —
Tumor volume (Day 6, animal F4): 0.0000 cm^3
Tumor measurement L (length) (Day 6, animal F5): —
Tumor measurement W (width) (Day 6, animal F5): —
Tumor volume (Day 6, animal F5): 0.0000 cm^3
Tumor measurement L (length) (Day 6, animal M1): —
Tumor measurement W (width) (Day 6, animal M1): —
Tumor volume (Day 6, animal M1): 0.0000 cm^3
Tumor measurement L (length) (Day 6, animal M2): —
Tumor measurement W (width) (Day 6, animal M2): —
Tumor volume (Day 6, animal M2): 0.0000 cm^3
Tumor measurement L (length) (Day 6, animal M3): —
Tumor measurement W (width) (Day 6, animal M3): —
Tumor volume (Day 6, animal M3): 0.0000 cm^3
Tumor measurement L (length) (Day 6, animal M4): —
Tumor measurement W (width) (Day 6, animal M4): —
Tumor volume (Day 6, animal M4): 0.0000 cm^3
Tumor measurement L (length) (Day 6, animal M5): —
Tumor measurement W (width) (Day 6, animal M5): —
Tumor volume (Day 6, animal M5): 0.0000 cm^3
Tumor Volume (cm^3) (Mean ± SD) (Day 6): 0.000 ± 0.0000 cm^3
PI (TV), percent inhibition of tumor volume (Day 6): 100.00%
Tumor volume (Day 9, animal F1): 0.0000 cm^3
Tumor volume (Day 9, animal F2): 0.0000 cm^3
Tumor volume (Day 9, animal F3): 0.0000 cm^3
Tumor volume (Day 9, animal F4): 0.0000 cm^3
Tumor measurement L (length) (Day 9, animal F5): 0.10 cm
Tumor measurement W (width) (Day 9, animal F5): 0.10 cm
Tumor volume (Day 9, animal F5): 0.0005 cm^3
Tumor volume (Day 9, animal M1): 0.0000 cm^3
Tumor volume (Day 9, animal M2): 0.0000 cm^3
Tumor volume (Day 9, animal M3): 0.0000 cm^3
Tumor volume (Day 9, animal M4): 0.0000 cm^3
Tumor measurement L (length) (Day 9, animal M5): 0.10 cm
Tumor measurement W (width) (Day 9, animal M5): 0.10 cm
Tumor volume (Day 9, animal M5): 0.0005 cm^3
Tumor Volume (cm^3) (Mean ± SD) (Day 9): 0.000 ± 0.0002 cm^3
mean tumor volume compared with Group 1 (vehicle), statistics (Day 9, p<0.05): statistically significantly smaller than Group 1
PI (TV), percent inhibition of tumor volume (Day 9): 99.52%
Tumor measurements on Day 12, L (Day 12, animal F1): 0.30 cm
Tumor measurements on Day 12, W (Day 12, animal F1): 0.30 cm
Tumor volume (Day 12, animal F2): 0.0000 cm^3
Tumor measurements on Day 12, L (Day 12, animal F3): 0.30 cm
Tumor measurements on Day 12, W (Day 12, animal F3): 0.30 cm
Tumor measurements on Day 12, L (Day 12, animal F4): 0.30 cm
Tumor measurements on Day 12, W (Day 12, animal F4): 0.30 cm
Tumor measurements on Day 12, L (Day 12, animal F5): 0.30 cm
Tumor measurements on Day 12, W (Day 12, animal F5): 0.30 cm
Tumor volume (Day 12, animal M1): 0.0000 cm^3
Tumor measurements on Day 12, L (Day 12, animal M2): 0.30 cm
Tumor measurements on Day 12, W (Day 12, animal M2): 0.30 cm
Tumor volume (Day 12, animal M3): 0.0000 cm^3
Tumor volume (Day 12, animal M4): 0.0000 cm^3
Tumor measurements on Day 12, L (Day 12, animal M5): 0.30 cm
Tumor measurements on Day 12, W (Day 12, animal M5): 0.30 cm
Tumor Volume (cm^3) (Mean ± SD) (Day 12): 0.008 ± 0.0070 cm^3
PI (TV), percent inhibition of tumor volume (Day 12): 97.64%
Tumor measurements on Day 15, L (Day 15, animal F1): 0.60 cm
Tumor measurements on Day 15, W (Day 15, animal F1): 0.60 cm
Tumor measurements on Day 15, L (Day 15, animal F2): 0.40 cm
Tumor volumes on Day 15 (Day 15, animal F2): 0.0320 cm^3
Tumor measurements on Day 15, W (Day 15, animal F2): 0.40 cm
Tumor measurements on Day 15, L (Day 15, animal F3): 0.60 cm
Tumor measurements on Day 15, W (Day 15, animal F3): 0.60 cm
Tumor measurements on Day 15, L (Day 15, animal F4): 0.70 cm
Tumor volumes on Day 15 (Day 15, animal F4): 0.0875 cm^3
Tumor measurements on Day 15, W (Day 15, animal F4): 0.50 cm
Tumor measurements on Day 15, L (Day 15, animal F5): 0.50 cm
Tumor volumes on Day 15 (Day 15, animal F5): 0.0625 cm^3
Tumor measurements on Day 15, W (Day 15, animal F5): 0.50 cm
Tumor measurements on Day 15, L (Day 15, animal M1): 0.20 cm
Tumor volumes on Day 15 (Day 15, animal M1): 0.0040 cm^3
Tumor measurements on Day 15, W (Day 15, animal M1): 0.20 cm
Tumor measurements on Day 15, L (Day 15, animal M2): 0.50 cm
Tumor volumes on Day 15 (Day 15, animal M2): 0.0625 cm^3
Tumor measurements on Day 15, W (Day 15, animal M2): 0.50 cm
Tumor measurements on Day 15, L (Day 15, animal M3): 0.20 cm
Tumor volumes on Day 15 (Day 15, animal M3): 0.0040 cm^3
Tumor measurements on Day 15, W (Day 15, animal M3): 0.20 cm
Tumor measurements on Day 15, L (Day 15, animal M4): 0.30 cm
Tumor measurements on Day 15, W (Day 15, animal M4): 0.30 cm
Tumor measurements on Day 15, L (Day 15, animal M5): 0.50 cm
Tumor volumes on Day 15 (Day 15, animal M5): 0.0625 cm^3
Tumor measurements on Day 15, W (Day 15, animal M5): 0.50 cm
Tumor Volume (cm^3) (Mean ± SD) (Day 15): 0.054 ± 0.0399 cm^3
PI (TV), percent inhibition of tumor volume (Day 15): 92.56%
effect on tumor growth in words (daily dosing Days 3-15): effective towards the tumor inhibition
